{
  "source": "patent US8940497B2",
  "about": "“Enzyme regulating ether lipid signaling pathways” (The Scripps Research Institute, priority 2006, dated 2015)",
  "key": {"SKOV-3 cells [1]": {"test_system": "SKOV-3 cells", "experiment": "Untargeted LC-MS comparative metabolomics of inhibitor-treated cells", "format": "cell-based, human", "conditions": "4 h", "method": "The following LC-MS conditions were used for analysis of cancer cell metabolomes. Cell pellets were harvested by scraping, isolated by centrifugation at 1,400×g, and dounce-homogenized in 4 mL of a 2:1:1 mixture of chloroform:methanol:Tris buffer (50 mM Tris*HCl, pH 8.0). Samples that were analyzed by targeted LC-MS were homogenized in the presence of the following synthetic standards: C15:0 MAG (50 pmol), C17:0 LPA (50 pmol), and 13C-C16:0 MAGE (25 pmol). Organic and aqueous layers were separated by centrifugation at 1,260×g for 5 min. The organic layer was then removed, dried under a stream of N2, and re-solubilized in 100 μL of chloroform, of which 30 μL was analyzed by LC-MS. Extraction of LPA was performed by acidifying the remaining aqueous layer to a final concentration of 5% formic acid, followed by the addition of 2 mL of chloroform. The mixture was vortexed, the organic layer removed, concentrated to dryness, and dissolved in 100 μL of chloroform, of which 30 μL was analyzed by LC-MS.\nLC-MS analysis was performed using an Agilent 1100 LC-MSD SL instrument. […] Mobile phase A was composed of a 95:5 ratio of water:methanol and mobile phase B consisted of 2-propanol, methanol, and water in a 60:35:5 ratio. Solvent modifiers such as 0.1% formic acid and 0.1% ammonium hydroxide were used to assist ion formation as well as improve the LC resolution in both positive and negative ionization modes respectively. The flow rate for each run started at 0.1 mL/min for 5 min, to alleviate backpressure associated with injecting chloroform. The gradient started at 0% B and increased linearly to 100% B over the course of 40 min with a flow rate of 0.4 mL/min, followed by an isocratic gradient of 100% B for 7 min before equilibrating for 8 min at 0% B with a flow rate of 0.5 mL/min.\nMS analysis was performed with an electrospray ionization (ESI) source. The capillary voltage was set to 3.0 kV and the fragmentor voltage to 100V. The drying gas temperature was 350° C., the drying gas flow rate was 10 L/min, and the nebulizer pressure was 35 psi. Untargeted data was collected using a mass range of 200-1000 Da and exported as common data format (.CDF) files for computational analysis. Differentially expressed metabolites between sample pairs were identified using the XCMS analyte profiling software (http://metlin/download) that aligns mass peaks from two LC-MS traces and quantifies the relative intensities of global metabolites (5). Significant inhibitor-sensitive peak changes were confirmed by manual quantification using the area under the peak normalized to total ion current. Targeted LC-MS measurements were made using selected ion monitoring (SIM). Peaks were quantified by measuring the area under the peak and normalized to an internal standard (C15:0 MAG) or endogenous lipid (palmitic acid). Absolute MAGE levels were estimated by comparison to a 13C-MAGE standard.\nHuman ovarian cancer cell lines were obtained form the National Cancer Institute's Developmental Therapeutics Program. The melanoma lines C8161 and MUM-2B were obtained form Mary Hendrix. Cells were maintained in RPMI medium 1640 with 10% (v/v) fetal calf serum at 37° C. in a humidified atmosphere of 5% CO2/95% air. At approximately 80% confluency, cells were trypsinized, counted with the aid of a hemocytometer, and 2.5×10^6 cells were plated in 6 cm dishes. 20 h after plating cells were washed twice with PBS and supplemented with serum free RPMI containing 0.5% BSA (Sigma)(BSA-RPMI) with AS115 (0.01-10 μM) or vehicle (DMSO) at 0.1%. After incubation for 4 h the cells were harvested and analyzed by ABPP or LC-MS.\nThese experiments were performed using the method of untargeted liquid chromatography-mass spectrometry (LC-MS) for comparative metabolomics. Cells were treated with AS115 (10 μM) or DMSO for 4 h and analyzed by untargeted LC-MS methods. […] Relative mass signals are shown in Table 1, represented as the average values and standard error for three independent experiments."}, "SKOV-3 cells [2]": {"test_system": "SKOV-3 cells", "experiment": "Metabolic labeling of SKOV-3 cells with 13C-2-acetyl MAGE", "format": "cell-based, human", "conditions": "10 μM 13C-2-acetyl MAGE, 1 h", "method": "Cells were cultured and maintained as described above. Cells used for 13C-2-acetyl MAGE experiments were incubated in BSA-RPMI containing inhibitor or vehicle for […]. BSA-RPMI medium was then removed, supplemented with 10 μM 13C-2-acetyl MAGE or DMSO, and re-applied to cells. After incubation for 1 h the cells were harvested and metabolomes were analyzed by LC-MS. 13C-MAGE experiments were conducted by addition of 13C-MAGE or DMSO containing BSA-RPMI directly after washing with PBS. Cells were then incubated for 4 h, harvested, and analyzed by LC-MS."}},
  "data": [
    {"smiles": "CCCCOCC1CCCCC1COCCNC(=O)Oc1ccccc1F", "note": "(centres unmarked) [AS115]", "values": [
      {"measurement": "Levels of lipophilic metabolites (m/z 317, 345, and 347)", "setting": "SKOV-3 cells [1]; 10 μM", "value": "substantial reduction"},
      {"measurement": "Levels of typical lipid species (free fatty acids, phospholipids, ceramides, monoacylglycerides)", "setting": "SKOV-3 cells [1]; 10 μM", "value": "none of which were significantly altered"},
      {"measurement": "Relative mass signal DMSO/AS115, Ceramide C16", "setting": "SKOV-3 cells [1]; AS115 10 μM or DMSO", "value": 0.53},
      {"measurement": "Relative mass signal DMSO/AS115, Ceramide C18", "setting": "SKOV-3 cells [1]; AS115 10 μM or DMSO", "value": 0.73},
      {"measurement": "Relative mass signal DMSO/AS115, FFA C14", "setting": "SKOV-3 cells [1]; AS115 10 μM or DMSO", "value": 0.69},
      {"measurement": "Relative mass signal DMSO/AS115, FFA C16", "setting": "SKOV-3 cells [1]; AS115 10 μM or DMSO", "value": 0.69},
      {"measurement": "Relative mass signal DMSO/AS115, FFA C18", "setting": "SKOV-3 cells [1]; AS115 10 μM or DMSO", "value": 0.76},
      {"measurement": "Relative mass signal DMSO/AS115, FFA C18:1", "setting": "SKOV-3 cells [1]; AS115 10 μM or DMSO", "value": 0.56},
      {"measurement": "Relative mass signal DMSO/AS115, FFA C20:4", "setting": "SKOV-3 cells [1]; AS115 10 μM or DMSO", "value": 1.04},
      {"measurement": "Relative mass signal DMSO/AS115, MAG C16", "setting": "SKOV-3 cells [1]; AS115 10 μM or DMSO", "value": 1.00},
      {"measurement": "Relative mass signal DMSO/AS115, MAG C18:1", "setting": "SKOV-3 cells [1]; AS115 10 μM or DMSO", "value": 0.83},
      {"measurement": "Relative mass signal DMSO/AS115, PA C32", "setting": "SKOV-3 cells [1]; AS115 10 μM or DMSO", "value": 1.01},
      {"measurement": "Relative mass signal DMSO/AS115, PA C34", "setting": "SKOV-3 cells [1]; AS115 10 μM or DMSO", "value": 1.41},
      {"measurement": "Relative mass signal DMSO/AS115, PA C34:1", "setting": "SKOV-3 cells [1]; AS115 10 μM or DMSO", "value": 0.95},
      {"measurement": "Relative mass signal DMSO/AS115, PA C36:1", "setting": "SKOV-3 cells [1]; AS115 10 μM or DMSO", "value": 0.99},
      {"measurement": "Relative mass signal DMSO/AS115, PA C36:2", "setting": "SKOV-3 cells [1]; AS115 10 μM or DMSO", "value": 0.74},
      {"measurement": "Relative mass signal DMSO/AS115, PC C32", "setting": "SKOV-3 cells [1]; AS115 10 μM or DMSO", "value": 1.07},
      {"measurement": "Relative mass signal DMSO/AS115, PC C34", "setting": "SKOV-3 cells [1]; AS115 10 μM or DMSO", "value": 0.96},
      {"measurement": "Relative mass signal DMSO/AS115, PC C34:1", "setting": "SKOV-3 cells [1]; AS115 10 μM or DMSO", "value": 1.01},
      {"measurement": "Relative mass signal DMSO/AS115, PC C36:1", "setting": "SKOV-3 cells [1]; AS115 10 μM or DMSO", "value": 0.68},
      {"measurement": "Relative mass signal DMSO/AS115, PC C36:2", "setting": "SKOV-3 cells [1]; AS115 10 μM or DMSO", "value": 1.07},
      {"measurement": "Relative mass signal DMSO/AS115, PE C32", "setting": "SKOV-3 cells [1]; AS115 10 μM or DMSO", "value": 1.13},
      {"measurement": "Relative mass signal DMSO/AS115, PE C34", "setting": "SKOV-3 cells [1]; AS115 10 μM or DMSO", "value": 0.94},
      {"measurement": "Relative mass signal DMSO/AS115, PE C34:1", "setting": "SKOV-3 cells [1]; AS115 10 μM or DMSO", "value": 0.84},
      {"measurement": "Relative mass signal DMSO/AS115, PE C36:1", "setting": "SKOV-3 cells [1]; AS115 10 μM or DMSO", "value": 0.94},
      {"measurement": "Relative mass signal DMSO/AS115, PE C36:2", "setting": "SKOV-3 cells [1]; AS115 10 μM or DMSO", "value": 0.61},
      {"measurement": "Relative mass signal DMSO/AS115, PG C32", "setting": "SKOV-3 cells [1]; AS115 10 μM or DMSO", "value": 0.78},
      {"measurement": "Relative mass signal DMSO/AS115, PG C34", "setting": "SKOV-3 cells [1]; AS115 10 μM or DMSO", "value": 0.95},
      {"measurement": "Relative mass signal DMSO/AS115, PG C34:1", "setting": "SKOV-3 cells [1]; AS115 10 μM or DMSO", "value": 0.98},
      {"measurement": "Relative mass signal DMSO/AS115, PG C36:1", "setting": "SKOV-3 cells [1]; AS115 10 μM or DMSO", "value": 0.89},
      {"measurement": "Relative mass signal DMSO/AS115, PG C36:2", "setting": "SKOV-3 cells [1]; AS115 10 μM or DMSO", "value": 1.04},
      {"measurement": "Relative mass signal DMSO/AS115, PS C32", "setting": "SKOV-3 cells [1]; AS115 10 μM or DMSO", "value": 1.06},
      {"measurement": "Relative mass signal DMSO/AS115, PS C34", "setting": "SKOV-3 cells [1]; AS115 10 μM or DMSO", "value": 1.02},
      {"measurement": "Relative mass signal DMSO/AS115, PS C34:1", "setting": "SKOV-3 cells [1]; AS115 10 μM or DMSO", "value": 0.96},
      {"measurement": "Relative mass signal DMSO/AS115, PS C36:1", "setting": "SKOV-3 cells [1]; AS115 10 μM or DMSO", "value": 0.99},
      {"measurement": "Relative mass signal DMSO/AS115, PS C36:2", "setting": "SKOV-3 cells [1]; AS115 10 μM or DMSO", "value": 1.13},
      {"measurement": "Relative mass signal DMSO/AS115, MAGE C16", "setting": "SKOV-3 cells [1]; AS115 10 μM or DMSO, p<0.001", "value": 5.29},
      {"measurement": "Relative mass signal DMSO/AS115, MAGE C18", "setting": "SKOV-3 cells [1]; AS115 10 μM or DMSO, p<0.001", "value": 5.86},
      {"measurement": "Relative mass signal DMSO/AS115, MAGE C18:1", "setting": "SKOV-3 cells [1]; AS115 10 μM or DMSO, p<0.001", "value": 4.42},
      {"measurement": "Levels of 2-acetyl MAGE as judged by metabolic labeling", "setting": "SKOV-3 cells [2]", "value": "significantly stabilized"},
      {"measurement": "PAF level in metabolic labeling experiments", "setting": "SKOV-3 cells [2]", "value": "accumulation"}
    ]}
  ]
}
